The text below walks through data of ChEMBL document CHEMBL1201862, “PubChem BioAssay data set” (2004).

Usually IC50 stands for the concentration that gives 50% inhibition. By CC50 is commonly meant the concentration giving 50% cytotoxicity. By EC50 is commonly meant the concentration that produces a half-maximal response. By AC50 is commonly meant the midpoint of the concentration-response curve, whichever way the signal moves.

Test [1] concerns the target Mothers against decapentaplegic homolog 3 (Homo sapiens, UniProt P84022). As to the kind of experiment: SMAD3 transcription factor inhibitors, dose response (AID 715). It counts as functional.
A further test concerns HeLa. As to the kind of experiment: Cytotoxicity counterscreen assay for transcriptional activators of heat shock protein 70 (Hsp70). [Related pubchem assays: 1203, 1252 ]. The format is functional. The settings on record: Homo sapiens. On the technique in general: A counterscreen serves to expose hits that act by an unwanted route or on another target.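 Also: cells exposed to compound for 16 hours before readout.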
The next test concerns the target Oxytocin receptor (Homo sapiens, UniProt P30559). As to the kind of experiment: Counterscreen for vasopressin 1 receptor (V1R) agonists: Fluorescence-based cell-based high throughput dose response assay for agonists of the Oxytocin Receptor (OXTR). [Related pubchem assays: 2435 (Primary screen (OXTR agonists in singlicate)), 434964 (Confirmation screen (V1R agonists in triplicate)), 434969 (Counterscreen (OXTR agonists in …. The format is functional.

A further test concerns the target Vasopressin V1a receptor (Homo sapiens, UniProt P37288). As to the kind of experiment: Fluorescence-based cell-based high throughput dose response screening assay for agonists of the vasopressin 1 receptor (V1R). The format is functional.
Test [2] deals with Epstein-Barr nuclear antigen 1 (Epstein-Barr virus (strain B95-8) (HHV-4) (Human herpesvirus 4), UniProt P03211). As to the kind of experiment: EBNA-1 inhibitors, dose response, biochemical, fluorescence polarization, 1536-well (AID 2381).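 Also: fluorescence polarization of a Cy5 DNA probe bound by EBNA-1 protein.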 Also on record: species or system human gammaherpesvirus 4. (Fluorescence polarisation rises when a labelled molecule tumbles more slowly, as on binding a larger partner.)
Sequence of Epstein-Barr nuclear antigen 1 (P03211 whole entry): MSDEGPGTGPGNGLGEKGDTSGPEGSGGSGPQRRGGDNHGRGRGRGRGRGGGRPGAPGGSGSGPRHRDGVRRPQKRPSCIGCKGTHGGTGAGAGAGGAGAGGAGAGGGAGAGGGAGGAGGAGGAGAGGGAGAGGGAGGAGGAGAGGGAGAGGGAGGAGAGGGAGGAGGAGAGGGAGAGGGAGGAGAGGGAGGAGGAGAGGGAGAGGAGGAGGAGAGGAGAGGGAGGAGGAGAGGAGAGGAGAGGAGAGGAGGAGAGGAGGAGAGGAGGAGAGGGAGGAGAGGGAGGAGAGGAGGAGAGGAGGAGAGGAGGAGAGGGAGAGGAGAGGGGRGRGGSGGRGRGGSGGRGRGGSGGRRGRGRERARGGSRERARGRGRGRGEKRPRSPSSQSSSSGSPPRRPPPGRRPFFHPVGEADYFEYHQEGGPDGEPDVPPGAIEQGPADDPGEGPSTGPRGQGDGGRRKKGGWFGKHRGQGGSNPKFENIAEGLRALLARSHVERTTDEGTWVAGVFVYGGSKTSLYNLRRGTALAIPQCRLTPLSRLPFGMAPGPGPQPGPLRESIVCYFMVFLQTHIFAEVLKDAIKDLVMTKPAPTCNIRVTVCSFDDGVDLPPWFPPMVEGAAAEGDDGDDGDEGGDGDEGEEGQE

For test [3], the target named is Lytic switch protein BZLF1 (Epstein-Barr virus (strain B95-8) (HHV-4) (Human herpesvirus 4), UniProt P03206). As to the kind of experiment: EBV ZTA inhibitors, dose response, counter-screen for EBNA-1 inhibitor project, biochemical, fluorescence polarization, Epstein-Barr virus, 1536-well (AID 2377).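 Also: fluorescence polarization of Cy5-labelled ZRE DNA probe bound by purified Zta.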 Details: species or system human gammaherpesvirus 4.
Sequence of Lytic switch protein BZLF1 (P03206 whole entry): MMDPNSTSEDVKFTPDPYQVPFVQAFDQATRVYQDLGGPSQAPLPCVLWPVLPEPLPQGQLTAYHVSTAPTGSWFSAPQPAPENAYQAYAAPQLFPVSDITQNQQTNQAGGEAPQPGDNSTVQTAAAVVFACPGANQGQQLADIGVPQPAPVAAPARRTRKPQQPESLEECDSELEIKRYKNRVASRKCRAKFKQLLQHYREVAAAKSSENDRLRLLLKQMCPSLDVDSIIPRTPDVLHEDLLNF
Test [4] is described as follows: cytotoxicity in HEK-293T cells, dose response, cytotoxicity control for BCR NF-kB inhibitor project, luminescence, B-cell screen hits (AID 489021).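 Also: HEK-293T cells carrying an NF-kB luciferase reporter; cells exposed to compound for about 14 hours before viability readout.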 It counts as functional, cell-based.
A short description of test [5]: insulin promoter down-regulators in MIN6 cells, imaging, high-content screening, mouse beta cells (AID 1628). It counts as functional.
A short description of test [6]: cytotoxicity in MIN6 insulinoma cells, dose response, cytotoxicity control, cell-based, mouse insulinoma (AID 2122).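 Also: confirmatory high-throughput counterscreen run to flag cytotoxic compounds; mouse MIN-6 beta cells carrying an insulin promoter eGFP reporter.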 It counts as functional.
Test [7] can be described thus: inhibitors of intracellular T. cruzi replication, confirmation, NIH3T3 host cells, beta-gal luminescence (AID 2044).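 Also: intracellular parasites grown in NIH/3T3 mouse fibroblasts as host cells; luminescent beta-galactosidase reporter signal from transgenic T. cruzi replicating inside host cells; inhibitors lower the luminescence signal.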 The format is functional, cell-based.
Test [8] is described as follows: cytotoxicity toward NIH3T3 fibroblasts, dose response, counter-screen, cell-based, ATP luminescence, mouse fibroblasts (AID 2010).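 Also: cells exposed to compound for about 90 hours before reading.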 The format is functional.
Test [9] addresses T1, Sphingosine 1-phosphate receptor 4 (Homo sapiens, UniProt O95977).
T1 sequence (O95977 whole entry): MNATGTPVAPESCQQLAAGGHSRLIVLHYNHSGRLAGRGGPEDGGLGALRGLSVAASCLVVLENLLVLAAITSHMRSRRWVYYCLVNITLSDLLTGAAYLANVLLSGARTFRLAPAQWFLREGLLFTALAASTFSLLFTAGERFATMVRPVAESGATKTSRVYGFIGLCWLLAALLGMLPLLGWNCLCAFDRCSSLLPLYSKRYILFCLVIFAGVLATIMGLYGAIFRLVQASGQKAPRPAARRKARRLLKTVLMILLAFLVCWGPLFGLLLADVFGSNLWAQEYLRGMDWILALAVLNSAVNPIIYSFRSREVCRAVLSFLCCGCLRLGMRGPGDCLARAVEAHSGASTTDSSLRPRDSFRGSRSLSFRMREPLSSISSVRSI
As to the kind of experiment: Fluorescence dose response cell-based high throughput screening assay for antagonists of the Sphingosine 1-Phosphate Receptor 4 (S1P4). [Related pubchem assays: 1524 (Confirmation in triplicates.), 1510 (Primary screen.)]. The format is functional.

Test [10] deals with Sphingosine 1-phosphate receptor 1 (Homo sapiens, UniProt P21453). The format is functional.
Sequence of Sphingosine 1-phosphate receptor 1 (P21453 whole entry): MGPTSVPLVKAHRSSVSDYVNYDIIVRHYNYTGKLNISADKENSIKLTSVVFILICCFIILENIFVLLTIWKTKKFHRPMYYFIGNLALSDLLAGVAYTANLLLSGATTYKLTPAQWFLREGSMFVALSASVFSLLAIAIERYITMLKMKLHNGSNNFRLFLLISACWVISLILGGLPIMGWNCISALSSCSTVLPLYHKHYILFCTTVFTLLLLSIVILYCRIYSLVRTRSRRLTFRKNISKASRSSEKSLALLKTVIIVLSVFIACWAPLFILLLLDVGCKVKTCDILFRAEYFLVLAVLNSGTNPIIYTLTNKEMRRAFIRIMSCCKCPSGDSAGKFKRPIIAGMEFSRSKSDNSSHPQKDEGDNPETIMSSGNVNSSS
Test [11] concerns the target T2, Microphthalmia-associated transcription factor (Homo sapiens, UniProt O75030).
T2 sequence (O75030 whole entry): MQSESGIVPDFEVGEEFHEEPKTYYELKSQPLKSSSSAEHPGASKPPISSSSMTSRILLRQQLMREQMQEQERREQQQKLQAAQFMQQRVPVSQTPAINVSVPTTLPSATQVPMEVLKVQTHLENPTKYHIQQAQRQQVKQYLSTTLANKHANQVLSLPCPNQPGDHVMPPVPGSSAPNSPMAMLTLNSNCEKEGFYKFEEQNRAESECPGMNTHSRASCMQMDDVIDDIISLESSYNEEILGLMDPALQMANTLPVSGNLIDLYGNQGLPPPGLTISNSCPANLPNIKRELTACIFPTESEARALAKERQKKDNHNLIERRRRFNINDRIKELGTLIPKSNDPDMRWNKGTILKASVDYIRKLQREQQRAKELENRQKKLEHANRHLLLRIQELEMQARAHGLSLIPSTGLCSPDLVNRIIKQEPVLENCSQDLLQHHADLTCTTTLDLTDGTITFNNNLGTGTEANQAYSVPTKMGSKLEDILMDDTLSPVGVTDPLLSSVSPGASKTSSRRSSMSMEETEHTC
As to the kind of experiment: TRPM1 promoter luciferase signal decrease, dose response, MITF inhibitor project, cell-based, SK-MEL-5, cherry-picked, set 3 (AID 493073).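 Also: SK-MEL-5 melanoma cells with luciferase driven by the MITF target TRPM1 promoter.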 It counts as functional.

Test [12] concerns Vero. As to the kind of experiment: cells. It counts as functional, cell-based. As to conditions: Chlorocebus sabaeus.
The test system of test [13] is Vero. As to the kind of experiment: cells. The format is functional. The settings on record: Chlorocebus sabaeus.
Test [14] is described as follows: A549 cell cytotoxicity, dose response, cytotoxicity control, plate reader, cherry-pick, antagonist series (AID 743412). The format is functional, cell-based.
A short description of test [15]: HepG2 cell cytotoxicity, dose response, cytotoxicity control, plate reader, cherry-pick, antagonist series (AID 743416). The format is functional, cell-based.
A short description of test [16]: LGR2 antagonists, dose response, cell-based, HEK293, CRE-luciferase reporter, cherry pick, set 2 (AID 743343).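 Also: transfected cells were stimulated with diluted bursicon conditioned medium after compound addition.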 The format is functional. A general note: Reporter assays use an easily measured gene product as a stand-in for the process of interest.
The nature of test [17]: MC4R antagonists, dose response, counter-screen for LGR2 antagonist project, cell-based, plate reader, cherry pick (AID 743444).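 Also: transfected HEK 293 cells stimulated with alpha-MSH peptide; potency of inhibitors of the alpha-MSH evoked signal.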 It counts as functional.
Test [18] in a line: HEK293 cell cytotoxicity, dose response, cytotoxicity control, plate reader, cherry-picked samples (AID 743446). It counts as functional, cell-based.
Test [19] in a line: inhibitors of Bluetongue virus cytopathic effect, confirmation, arbovirus, BSR cells (AID 1250).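 Also: protection from viral cytopathic effect measured as cell viability by ATP luminescence.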 The format is functional.
The next test has as its target NS3 (Hepatitis C virus, UniProt A3EZJ3). As to the kind of experiment: PubChem AID 2173. Details: species or system Hepacivirus hominis.
In test [20] the target is Serine/threonine-protein phosphatase (Homo sapiens, UniProt Q9BPW0). As to the kind of experiment: Counterscreen for inhibitors of PP1: fluorescence-based biochemical high throughput dose response assay to identify inhibitors of Protein Phosphatase 5 (PP5). [Related pubchem assays: 2034 (Summary (PP5 inhibitors)), 1987 (PP5 inhibitors in singlate), 2235 (PP1 inhibitors in singlate)].
Sequence of Serine/threonine-protein phosphatase (Q9BPW0 whole entry): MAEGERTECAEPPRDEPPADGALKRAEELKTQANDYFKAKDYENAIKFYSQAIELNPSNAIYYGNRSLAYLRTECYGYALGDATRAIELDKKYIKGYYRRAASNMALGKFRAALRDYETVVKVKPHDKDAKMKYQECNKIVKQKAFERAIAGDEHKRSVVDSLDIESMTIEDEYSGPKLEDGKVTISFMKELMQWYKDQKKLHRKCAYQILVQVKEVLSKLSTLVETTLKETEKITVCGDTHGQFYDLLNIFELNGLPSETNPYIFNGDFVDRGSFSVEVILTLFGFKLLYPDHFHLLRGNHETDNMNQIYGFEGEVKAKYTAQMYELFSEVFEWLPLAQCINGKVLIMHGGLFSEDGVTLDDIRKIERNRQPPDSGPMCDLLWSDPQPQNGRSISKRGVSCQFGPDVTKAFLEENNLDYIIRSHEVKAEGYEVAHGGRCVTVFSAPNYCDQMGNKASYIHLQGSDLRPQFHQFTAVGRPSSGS

Test [21] in a line: HeLa 2N DNA content increase, dose response, cell-based, IC50 (AID 1117349). It counts as functional.
Test [22] is described as follows: half-maximal inhibitory concentration for glucagon-like peptide-1 release, STC-1 cell line, dose-response (AID 1117345). The format is functional, cell-based.
Test [23] is described as follows: HeLa 4N DNA content increase, dose response, cell-based, IC50 (AID 1117351). The format is functional.
Test [24] in a line: Glucagon-like peptide 1 release potency, NCI-H716 cell line, dose-response, half-maximal inhibitory concentration (AID 1117344). The format is functional, cell-based.

Calls of active or inactive are those of the source. Bounds are passed on as bounds.

Sequence of Oxytocin receptor (P30559 whole entry): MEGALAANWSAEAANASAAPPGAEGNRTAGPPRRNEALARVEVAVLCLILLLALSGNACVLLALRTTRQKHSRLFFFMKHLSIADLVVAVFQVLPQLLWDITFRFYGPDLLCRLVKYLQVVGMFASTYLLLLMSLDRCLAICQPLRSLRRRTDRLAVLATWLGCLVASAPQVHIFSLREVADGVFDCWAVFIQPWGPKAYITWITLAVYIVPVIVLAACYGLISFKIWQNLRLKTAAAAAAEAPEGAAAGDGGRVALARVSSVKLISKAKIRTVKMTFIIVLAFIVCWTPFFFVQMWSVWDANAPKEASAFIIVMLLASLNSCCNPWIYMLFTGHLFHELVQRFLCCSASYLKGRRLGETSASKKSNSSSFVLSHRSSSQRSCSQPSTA
Sequence of Mothers against decapentaplegic homolog 3 (P84022 whole entry): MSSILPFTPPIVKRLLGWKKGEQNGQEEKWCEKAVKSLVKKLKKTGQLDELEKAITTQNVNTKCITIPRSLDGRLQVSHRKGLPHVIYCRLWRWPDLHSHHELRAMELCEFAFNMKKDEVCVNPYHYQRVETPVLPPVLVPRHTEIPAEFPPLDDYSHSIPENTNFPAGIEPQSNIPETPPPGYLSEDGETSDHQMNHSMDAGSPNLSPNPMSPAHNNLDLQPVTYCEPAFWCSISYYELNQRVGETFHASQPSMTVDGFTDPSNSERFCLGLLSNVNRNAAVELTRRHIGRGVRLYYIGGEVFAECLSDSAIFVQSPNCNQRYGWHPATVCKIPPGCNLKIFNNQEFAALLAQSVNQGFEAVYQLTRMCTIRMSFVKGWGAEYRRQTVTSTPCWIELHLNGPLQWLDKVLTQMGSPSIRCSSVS
Sequence of NS3 (A3EZJ3 whole entry): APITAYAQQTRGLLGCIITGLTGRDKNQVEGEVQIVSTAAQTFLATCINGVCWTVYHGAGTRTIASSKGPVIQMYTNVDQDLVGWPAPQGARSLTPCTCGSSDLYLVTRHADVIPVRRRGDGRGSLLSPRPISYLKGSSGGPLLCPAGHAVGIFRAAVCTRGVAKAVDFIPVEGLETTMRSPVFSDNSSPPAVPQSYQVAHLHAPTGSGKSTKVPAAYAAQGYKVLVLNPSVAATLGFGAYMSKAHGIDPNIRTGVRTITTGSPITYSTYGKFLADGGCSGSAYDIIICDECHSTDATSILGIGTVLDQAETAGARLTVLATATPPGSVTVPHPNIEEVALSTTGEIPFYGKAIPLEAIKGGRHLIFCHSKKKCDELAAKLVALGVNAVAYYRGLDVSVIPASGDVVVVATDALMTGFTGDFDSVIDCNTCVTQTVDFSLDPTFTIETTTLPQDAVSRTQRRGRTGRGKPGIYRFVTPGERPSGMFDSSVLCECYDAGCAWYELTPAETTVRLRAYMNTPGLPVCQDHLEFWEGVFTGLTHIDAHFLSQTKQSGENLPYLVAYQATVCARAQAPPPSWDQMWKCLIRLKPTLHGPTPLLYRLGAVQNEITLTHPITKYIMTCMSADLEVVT
Sequence of Vasopressin V1a receptor (P37288 whole entry): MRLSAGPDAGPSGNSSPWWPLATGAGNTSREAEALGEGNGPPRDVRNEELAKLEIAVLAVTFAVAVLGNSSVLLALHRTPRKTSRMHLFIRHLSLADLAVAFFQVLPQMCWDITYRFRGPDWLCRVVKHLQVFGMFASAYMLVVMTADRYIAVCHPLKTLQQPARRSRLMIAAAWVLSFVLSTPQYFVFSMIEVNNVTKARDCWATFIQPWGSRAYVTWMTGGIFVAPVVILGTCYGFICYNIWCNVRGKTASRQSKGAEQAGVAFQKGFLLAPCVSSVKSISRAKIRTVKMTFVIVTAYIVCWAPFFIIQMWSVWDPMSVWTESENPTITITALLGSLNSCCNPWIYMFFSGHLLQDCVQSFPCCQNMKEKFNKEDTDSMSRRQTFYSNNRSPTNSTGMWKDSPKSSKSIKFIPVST

Regarding `Cc1cccc(CSc2nc3c(cc2C#N)CCC3)c1`, in [1], the IC50 is 18.5 µM (active).

Take `N#Cc1ccc(NC(=O)c2nc(-c3ccccc3)n(-c3ccccc3)n2)cc1`: the CC50 in the test on HeLa is > 99 µM (not active).

On to `CC(NC(=O)Nc1ccc([N+](=O)[O-])cc1)C(c1ccccc1)N1CCOCC1` (stereo not drawn), for which the values for the EC50 on Oxytocin receptor and at Vasopressin V1a receptor were > 29.9 µM (not active) and 4.67 µM (active), respectively.

Regarding `COc1ccc(C(=O)Nc2nnc(Cc3cccs3)s2)cc1OC`, the IC50 in test [2] was 41.5 µM (not active); in [3] it was > 111 µM (not active); in [4], > 80 µM (inactive).

Take `O=C(Cn1ncc(Cl)c(Cl)c1=O)N1CCN(Cc2ccccc2)CC1`: the IC50 in test [5] was 3.08 µM (active); in test [6], 2.16 µM (active); in test [9] it was 3.5 µM (active); in [10] it was 9.93 µM (active); in the test on Vero [12], > 25 µM (active). The EC50 in test [7] is 2.22 µM (active); in test [8] it was 2.06 µM (active). Also, the AC50 in test [11] is 10.9 µM (active); in test [14] it was 11.1 µM (active); in [15] it was 17.8 µM (active); in test [16], 31.5 µM (active); in test [17], 34.1 µM (active); in [18], 7.54 µM (active). In addition, the half-maximal cytotoxic concentration (CC50) with Vero [13] is 11.3 µM (active).

Take `O=C(Nc1nnc(SCc2ccc(Cl)cc2Cl)s1)C1COc2ccccc2O1` (stereo not drawn): the IC50 in test [19] is 49 µM (active).

In the case of `COc1ccc(C2C(C(=O)c3ccc4c(c3)OCCO4)=C(O)C(=O)N2c2nc(C)c(C(C)=O)s2)cc1` (stereo not drawn), the IC50 at NS3 is 5.13 µM (active).

On to `C[C@@]12C(=O)OC(=O)[C@]1(C)C1CCC2O1`, for which the IC50 in test [20] was 0.239 µM (active); in [21], > 10 µM (inactive); in test [22], 13.7 µM (inactive); in [23], > 10 µM (inactive); in test [24] it was 6.68 µM (inactive).
